This passage reports IC50 results from patent publication US20230286948A1 (HUYABIO International, LLC, priority 2022, published 2023).

Each structure is given as a SMILES string.

This assay deals with MLL1-WDR5 protein-protein interaction (Homo sapiens (Human), UniProt P61964). The experiment in a line: WDR5 TR-FRET assay (MLL1-WDR5 PPI inhibition). Format: binding. The settings on record: 5 nM WDR5 protein, 10 nM peptide, read-out: IC50 (nM), MLL1-WDR5 PPI inhibitory activity. The protocol: WDR5 TR-FRET Assay Procedure: Stock compounds were transferred to the assay plate by Echo Liquid Handler. […] Stock compounds were incubated with WDR5 protein for 30 min at room temperature. Plates were covered, protected from light and incubated for 60 min at room temperature, after adding the peptide and Tb-Ab. EnVision Multimode Plate Reader (PerkinElmer) was used for the TR-FRET assay with excitation wavelength at 340 nm and emission wavelength at 495 and 520 nm. The ratio of the 520/495 wavelengths were used to assess the degree of the FRET signal. IC50 was calculated by fitting the inhibition data using XLfit software to sigmoidal dose-response model.
One may read the IC50 as the midpoint of a concentration-inhibition curve. Regarding `Cc1cc(C(F)(F)F)ncc1C(=O)Nc1cc(-n2cc(C(=O)NCCCN3CCOCC3)nn2)ccc1N1CCN(C)CC1` [Example 31, 4-methyl-N-(2-(4-methylpiperazin-1-yl)-5-(4-((3-morpholinopropyl)carbamoyl)-1H-1,2,3-triazol-1-yl)phenyl)-6-(trifluoromethyl)nicotinamide], the IC50 was > 10000 nM.
Under `CN1CCN(c2ccc(-n3cc(C(=O)NCCCN4CCOCC4)nn3)cc2NC(=O)c2nnc(Cl)cc2Cl)CC1` [Example 32, 4,6-dichloro-N-(2-(4-methylpiperazin-1-yl)-5-(4-((3-morpholinopropyl)carbamoyl)-1H-1,2,3-triazol-1-yl)phenyl)pyridazine-3-carboxamide] stands > 10000 nM; under `CN1CCN(c2ccc(-n3cc(C(=O)NCCCN4CCOCC4)nn3)cc2NC(=O)c2nnc(Cl)cc2N)CC1` [Example 33, 4-amino-6-chloro-N-(2-(4-methylpiperazin-1-yl)-5-(4-((3-morpholinopropyl)carbamoyl)-1H-1,2,3-triazol-1-yl)phenyl)pyridazine-3-carboxamide], > 10000 nM; under `CN1CCN(c2ccc(-n3cc(C(=O)NCCCN4CCOCC4)nn3)cc2NC(=O)c2ncc(Cl)nc2Cl)CC1` [Example 34, 3,5-dichloro-N-[2-(4-methylpiperazin-1-yl)-5-[4-(3-morpholinopropylcarbamoyl)triazol-1-yl]phenyl]pyrazine-2-carboxamide], > 10000 nM.
Under `COc1cnc(C(=O)Nc2cc(-n3cc(C(=O)NCCCN4CCOCC4)nn3)ccc2N2CCN(C)CC2)c(Cl)n1` [Example 35, 3-chloro-5-methoxy-N-(2-(4-methylpiperazin-1-yl)-5-(4-((3-morpholinopropyl)carbamoyl)-1H-1,2,3-triazol-1-yl)phenyl)pyrazine-2-carboxamide] stands > 10000 nM; under `COc1cnc(C(=O)Nc2cc(-n3cc(C(=O)NCCCN4CCOCC4)nn3)ccc2N2CCN(C)CC2)c(OC)n1` [Example 36, 3,5-dimethoxy-N-(2-(4-methylpiperazin-1-yl)-5-(4-((3-morpholinopropyl)carbamoyl)-1H-1,2,3-triazol-1-yl)phenyl)pyrazine-2-carboxamide], > 10000 nM.
The same measure for `CN1CCN(c2ccc(-n3cc(C(=O)NCCCN4CCOCC4)nn3)cc2NC(=O)c2ccc(Cl)nc2C(F)(F)F)CC1` [Example 37, 6-chloro-N-(2-(4-methylpiperazin-1-yl)-5-(4-((3-morpholinopropyl)carbamoyl)-1H-1,2,3-triazol-1-yl)phenyl)-2-(trifluoromethyl)nicotinamide]: 1960 nM.
With `COc1ccc(C(=O)Nc2cc(-n3cc(C(=O)NCCCN4CCOCC4)nn3)ccc2N2CCN(C)CC2)c(C(F)(F)F)n1` [Example 38, 6-methoxy-N-(2-(4-methylpiperazin-1-yl)-5-(4-((3-morpholinopropyl)carbamoyl)-1H-1,2,3-triazol-1-yl)phenyl)-2-(trifluoromethyl)nicotinamide], the IC50 was > 10000 nM.
Under `CN1CCN(c2ccc(-n3cc(C(=O)NCCCN4CCOCC4)nn3)cc2NC(=O)c2ccc(C#N)nc2C(F)(F)F)CC1` [Example 39, 6-cyano-N-[2-(4-methylpiperazin-1-yl)-5-[4-(3-morpholinopropylcarbamoyl)triazol-1-yl]phenyl]-2-(trifluoromethyl)pyridine-3-carboxamide] stands 1150 nM.
The same measure for `COc1ccc(CNc2ccc(C(=O)Nc3cc(-n4cc(C(=O)NCCCN5CCOCC5)nn4)ccc3N3CCN(C)CC3)c(C(F)(F)F)n2)cc1` [Example 42, 6-((4-methoxybenzyl)amino)-N-(2-(4-methylpiperazin-1-yl)-5-(4-((3-morpholinopropyl)carbamoyl)-1H-1,2,3-triazol-1-yl)phenyl)-2-(trifluoromethyl)nicotinamide]: > 10000 nM; for `CSc1ccc(C(=O)Nc2cc(-n3cc(C(=O)NCCCN4CCOCC4)nn3)ccc2N2CCN(C)CC2)c(C(F)(F)F)n1` [Example 43, N-(2-(4-methylpiperazin-1-yl)-5-(4-((3-morpholinopropyl)carbamoyl)-1H-1,2,3-triazol-1-yl)phenyl)-6-(methylthio)-2-(trifluoromethyl)nicotinamide]: > 10000 nM.
`CN1CCN(c2ccc(-n3cc(C(=O)NCCCN4CCOCC4)nn3)cc2NC(=O)c2ccc(S(C)(=O)=O)nc2C(F)(F)F)CC1` [Example 44, N-[2-(4-methylpiperazin-1-yl)-5-[4-(3-morpholinopropylcarbamoyl)triazol-1-yl]phenyl]-6-methylsulfonyl-2-(trifluoromethyl)pyridine-3-carboxamide]: the IC50 is > 10000 nM.
For the compound `CN1CCN(c2ccc(-n3cc(C(=O)NCCCN4CCOCC4)nn3)cc2NC(=O)c2ccc(Cl)cc2C(F)(F)F)CC1` [Example 46, 1-(3-(4-chloro-2-(trifluoromethyl)benzamido)-4-(4-methylpiperazin-1-yl)phenyl)-N-(3-morpholinopropyl)-1H-1,2,3-triazole-4-carboxamide], the IC50 amounted to 458 nM.
Under `CN1CCN(c2ccc(-n3cc(C(=O)NCCCN4CCOCC4)nn3)cc2NC(=O)c2cc(C(F)(F)F)cc(C(F)(F)F)c2)CC1` [Example 47, 1-(3-(3,5-bis(trifluoromethyl)benzamido)-4-(4-methylpiperazin-1-yl)phenyl)-N-(3-morpholinopropyl)-1H-1,2,3-triazole-4-carboxamide] stands 3520 nM; under `Cc1cc(Cl)c(C(=O)Nc2cc(-n3cc(C(=O)NCCCN4CCOCC4)nn3)ccc2N2CCN(C)CC2)cc1[N+](=O)[O-]` [Example 48, 1-[3-[(2-chloro-4-methyl-5-nitro-benzoyl)amino]-4-(4-methylpiperazin-1-yl)phenyl]-N-(3-morpholinopropyl)triazole-4-carboxamide], > 10000 nM; under `Cc1cc(Cl)c(C(=O)Nc2cc(-n3cc(C(=O)NCCCN4CCOCC4)nn3)ccc2N2CCN(C)CC2)cc1N` [Example 49, 1-(3-(5-amino-2-chloro-4-methylbenzamido)-4-(4-methylpiperazin-1-yl)phenyl)-N-(3-morpholinopropyl)-1H-1,2,3-triazole-4-carboxamide], 4370 nM.
The same measure for `C[C@@H]1CN(c2cc(F)c(-n3cc(C(=O)N4CCN(C)CC4)nn3)cc2NC(=O)c2cnc(Cl)cc2C(F)(F)F)C[C@H](C)N1C` [Example 51, 6-chloro-N-(4-fluoro-5-(4-(4-methylpiperazine-1-carbonyl)-1H-1,2,3-triazol-1-yl)-2-((3S,5R)-3,4,5-trimethylpiperazin-1-yl)phenyl)-4-(trifluoromethyl)nicotinamide]: 326 nM.
The same measure for `C[C@@H]1CN(c2cc(F)c(-n3cc(C(=O)NC4CCN(C)CC4)nn3)cc2NC(=O)c2cnc(Cl)cc2C(F)(F)F)C[C@H](C)N1C` [Example 52, 6-chloro-N-(4-fluoro-5-(4-((1-methylpiperidin-4-yl)carbamoyl)-1H-1,2,3-triazol-1-yl)-2-((3S,5R)-3,4,5-trimethylpiperazin-1-yl)phenyl)-4-(trifluoromethyl)nicotinamide]: 287 nM; for `CCN(CC)C(=O)c1cn(-c2cc(NC(=O)c3cnc(F)cc3C(F)(F)F)c(N3C[C@@H](C)N(C)[C@@H](C)C3)cc2F)nn1` [Example 53, N-(5-(4-(diethylcarbamoyl)-1H-1,2,3-triazol-1-yl)-4-fluoro-2-((3S,5R)-3,4,5-trimethylpiperazin-1-yl)phenyl)-6-fluoro-4-(trifluoromethyl)nicotinamide]: 535 nM; for `COc1cc(C(F)(F)F)c(C(=O)Nc2cc(-n3cc(C(=O)NC4CCN(C)CC4)nn3)c(F)cc2N2C[C@@H](C)N(C)[C@@H](C)C2)cn1` [Example 54, N-(4-fluoro-5-(4-((1-methylpiperidin-4-yl)carbamoyl)-1H-1,2,3-triazol-1-yl)-2-((3S,5R)-3,4,5-trimethylpiperazin-1-yl)phenyl)-6-methoxy-4-(trifluoromethyl)nicotinamide]: 618 nM.
For `COc1cc(C(F)(F)F)c(C(=O)Nc2cc(-n3cc(C(=O)NCCCN4CCOCC4)nn3)c(F)cc2N2C[C@@H](C)N(C)[C@@H](C)C2)cn1` [Example 55], the IC50 was found to be 2820 nM.
In the case of `CCN(CC)C(=O)c1cn(-c2cc(NC(=O)c3cnc(Cl)cc3Cl)c(N3C[C@@H](C)N(C)[C@@H](C)C3)cc2F)nn1` [Example 56, 4,6-dichloro-N-[5-[4-(diethylcarbamoyl)triazol-1-yl]-4-fluoro-2-[(3R,5S)-3,4,5-trimethylpiperazin-1-yl]phenyl]pyridine-3-carboxamide], the IC50 is 1160 nM.
In the case of `C[C@@H]1CN(c2cc(F)c(-n3cc(C(=O)N4CCN(C)CC4)nn3)cc2NC(=O)c2cnc(Cl)cc2Cl)C[C@H](C)N1C` [Example 57, 4,6-dichloro-N-(4-fluoro-5-(4-(4-methylpiperazine-1-carbonyl)-1H-1,2,3-triazol-1-yl)-2-((3S,5R)-3,4,5-trimethylpiperazin-1-yl)phenyl)nicotinamide], the IC50 was 2170 nM.
Under `C[C@@H]1CN(c2cc(F)c(-n3cc(C(=O)NC4CCN(C)CC4)nn3)cc2NC(=O)c2cnc(C(F)(F)F)cc2Cl)C[C@H](C)N1C` [Example 58, 4-chloro-N-(4-fluoro-5-(4-((1-methylpiperidin-4-yl)carbamoyl)-1H-1,2,3-triazol-1-yl)-2-((3S,5R)-3,4,5-trimethylpiperazin-1-yl)phenyl)-6-(trifluoromethyl)nicotinamide] stands > 10000 nM; under `Cc1c(Cl)ncc(C(=O)Nc2cc(-n3cc(C(=O)NCCCN4CCOCC4)nn3)c(F)cc2N2C[C@@H](C)N(C)[C@@H](C)C2)c1Cl` [Example 59, 4,6-dichloro-N-[4-fluoro-5-[4-(3-morpholinopropylcarbamoyl)triazol-1-yl]-2-[(3R,5S)-3,4,5-trimethylpiperazin-1-yl]phenyl]-5-methyl-pyridine-3-carboxamide], > 10000 nM.
